Some test systems named below: A549 NSCLC; CCRF-CEM leukemia; HL-60(TB) leukemia; IGROV1 ovarian; OVCAR-8 ovarian; SK-MEL-2 melanoma; SK-OV-3 ovarian; SN12C renal; T-47D breast; HCC-2998 colon.
Common to all, as to assay: inhibition of tumour cell growth, NCI panel, 48 h

Consider 15 molecules from PubChem BioAssay (NCI).

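Test compounds were applied to cells in 96-well plates for 48 hours at 5 doses. TGI denotes the concentration required for complete inhibition of growth.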 A value given as a limit tells only on which side of the number the result lay.

As to `CCC1([N+](=O)[O-])CN(N=O)C1`, the TGI with A549 NSCLC, with CCRF-CEM leukemia, in the assay with HL-60(TB) leukemia, with IGROV1 ovarian, in the assay with OVCAR-8 ovarian and in the assay with SK-MEL-2 melanoma was greater than 100 µM each time. For the same molecule, the TGI in the assay with SK-OV-3 ovarian, in the assay with SN12C renal and in the assay with T-47D breast was greater than 100 µM throughout.

As to `COc1cc2c(cc1OCc1ccccc1)NC(=O)[C@@H]1CCCN1C2=O`, the TGI in the assay with A549 NSCLC, with CCRF-CEM leukemia, in the assay with HCC-2998 colon, in the assay with IGROV1 ovarian, in the assay on OVCAR-8 ovarian and in the assay on SK-MEL-2 melanoma was greater than 100 µM in each case. Further, the TGI in the assay on SK-OV-3 ovarian, with SN12C renal and with T-47D breast was greater than 100 µM in each case.

`O=c1c2cc([N+](=O)[O-])ccc2oc2nc3n(c(=O)c12)CCCS3`: the TGI in the assay on A549 NSCLC, in the assay on CCRF-CEM leukemia, with HCC-2998 colon, with IGROV1 ovarian, in the assay with SK-MEL-2 melanoma and in the assay with SK-OV-3 ovarian was greater than 100 µM each time. Moreover, the TGI in the assay with SN12C renal and in the assay with T-47D breast was greater than 100 µM throughout.

For the molecule `CC(C)(C)c1ccnc(N=C2N=C(Nc3cc(C(C)(C)C)ccn3)c3ccccc32)c1`, the TGI is 62.3 µM with A549 NSCLC; greater than 100 µM in the assay with CCRF-CEM leukemia; greater than 100 µM in the assay with HL-60(TB) leukemia; 72.1 µM with IGROV1 ovarian; 41.7 µM in the assay with OVCAR-8 ovarian; greater than 100 µM in the assay with SK-MEL-2 melanoma. Besides, the TGI with SK-OV-3 ovarian was 49 µM; with SN12C renal, greater than 100 µM.

As to `C=C1C[C@@H]2O[C@H]3[C@H]4[C@@H](C[C@@H](C)[C@@H](OC(C)=O)[C@H]42)[C@@H](C)CO[C@@]3(C)[C@H](OC(=O)CCCCCCC)CC1=O`, the TGI with A549 NSCLC was found to be 35.2 µM; in the assay on CCRF-CEM leukemia it was 23.8 µM; in the assay on HCC-2998 colon, 30.8 µM; in the assay on IGROV1 ovarian, 48.4 µM; in the assay with OVCAR-8 ovarian, 30.9 µM; in the assay on SK-MEL-2 melanoma, 35 µM. The TGI with SN12C renal came to 30.2 µM; in the assay with T-47D breast, 31.5 µM.

Consider `CN(C)CCCNC(=O)N/N=C/c1ccccc1`, for which the TGI with A549 NSCLC, in the assay with CCRF-CEM leukemia, with HL-60(TB) leukemia, in the assay with IGROV1 ovarian, in the assay on OVCAR-8 ovarian and in the assay on SK-MEL-2 melanoma was greater than 100 µM each time. The TGI in the assay on SK-OV-3 ovarian and in the assay with SN12C renal was greater than 100 µM in each case.

Turning to `Cc1cc(-c2cc(C(C)(C)C)c(O)c(C(C)(C)C)c2)c(C)cc1-c1cc(C(C)(C)C)c(O)c(C(C)(C)C)c1`, the TGI in the assay on A549 NSCLC, in the assay on CCRF-CEM leukemia, in the assay on HL-60(TB) leukemia, in the assay with IGROV1 ovarian, in the assay with OVCAR-8 ovarian and in the assay with SK-MEL-2 melanoma was greater than 100 µM throughout. The TGI with SK-OV-3 ovarian, in the assay with SN12C renal and in the assay with T-47D breast was greater than 100 µM throughout.

As to `Cc1nc2c(=O)n(-c3ccccc3)c(=O)n(-c3ccccc3)c2o1`, the TGI with A549 NSCLC, in the assay with CCRF-CEM leukemia, in the assay with HCC-2998 colon, with IGROV1 ovarian, in the assay on OVCAR-8 ovarian and in the assay with SK-MEL-2 melanoma was greater than 100 µM throughout. In addition, the TGI in the assay with SK-OV-3 ovarian, with SN12C renal and in the assay with T-47D breast was greater than 100 µM each time.

As for `O=C(C(=C(I)I)c1ccccc1)c1ccccc1`, the TGI was greater than 100 µM in the assay with A549 NSCLC; 51.7 µM with CCRF-CEM leukemia; 52.3 µM in the assay with HL-60(TB) leukemia; 44.4 µM with IGROV1 ovarian; greater than 100 µM in the assay with OVCAR-8 ovarian; 38 µM in the assay with SK-MEL-2 melanoma. Moreover, the TGI in the assay on SK-OV-3 ovarian and in the assay with SN12C renal was greater than 100 µM throughout.

Take `CC(=N/NC(=S)N(C)C)/C(=N\NC(=S)N(C)C)c1ccccc1`: the TGI is 8.56 µM with A549 NSCLC; 2.99 µM in the assay on HCC-2998 colon; 3.36 µM with IGROV1 ovarian; 4.69 µM in the assay on SK-MEL-2 melanoma; 3.53 µM in the assay on SK-OV-3 ovarian; 3.24 µM in the assay with SN12C renal. Further, the TGI with T-47D breast worked out at 3.54 µM.

Consider `CN1c2ccccc2C2=C(c3ccccc3)CC[C@@H](C(=O)N3C4CC5CC[C@@]4(CS3(=O)=O)C5(C)C)[C@@H]21` (stereo partly drawn), for which the TGI with A549 NSCLC, in the assay with CCRF-CEM leukemia, in the assay with IGROV1 ovarian, in the assay with OVCAR-8 ovarian, with SK-OV-3 ovarian and with SN12C renal was greater than 100 µM each time. Also, the TGI with T-47D breast is greater than 100 µM.

For the molecule `CC(=O)/C(=N\Nc1ccc(Cl)cc1)C(C)=Nc1ccc(C)cc1`, the TGI in the assay on A549 NSCLC was greater than 100 µM; in the assay with CCRF-CEM leukemia it was 37.7 µM; with IGROV1 ovarian, greater than 100 µM; in the assay with OVCAR-8 ovarian, greater than 100 µM; with SK-MEL-2 melanoma, 40 µM; in the assay with SK-OV-3 ovarian it was greater than 100 µM. Besides, the TGI in the assay with SN12C renal and with T-47D breast was greater than 100 µM in each case.

Turning to `COc1ccc(C2C=C(c3ccc(C)cc3)N(c3ccc(OC)cc3[N+](=O)[O-])C3C(=O)OC(=O)C23)c(OC)c1` (stereo not drawn), the TGI with A549 NSCLC was greater than 100 µM; in the assay on CCRF-CEM leukemia it was greater than 100 µM; in the assay with HCC-2998 colon, 79.4 µM; in the assay on HL-60(TB) leukemia it was greater than 100 µM; in the assay with IGROV1 ovarian, 58.1 µM; with OVCAR-8 ovarian it was 39.5 µM. Further, the TGI in the assay on SK-MEL-2 melanoma and with SK-OV-3 ovarian was greater than 100 µM throughout.

Take `Oc1ccccc1/C=N/N1C(=S)N(C23CC4CC(CC(C4)C2)C3)C(=Nc2ccccc2)C1=Nc1ccccc1`: the TGI in the assay on A549 NSCLC, in the assay with HCC-2998 colon, with IGROV1 ovarian, in the assay on OVCAR-8 ovarian, in the assay with SK-MEL-2 melanoma and in the assay with SK-OV-3 ovarian was greater than 100 µM each time. The TGI in the assay on SN12C renal and in the assay with T-47D breast was greater than 100 µM in each case.

For the molecule `C/C(=C\CSCC(N)C(=O)O)CC/C=C(\C)CNc1ccccc1` (stereo not drawn), the TGI in the assay with A549 NSCLC, in the assay with HCC-2998 colon, with HL-60(TB) leukemia, in the assay with IGROV1 ovarian, with OVCAR-8 ovarian and in the assay on SK-MEL-2 melanoma was greater than 100 µM throughout. Besides, the TGI in the assay with SK-OV-3 ovarian, in the assay on SN12C renal and in the assay with T-47D breast was greater than 100 µM in each case.
